# Assay results taken from PMC6615598, “Novel antibiotics effective against gram-positive and -negative multi-resistant bacteria with limited resistance” (PLoS Biology, 2019).
# Tests used:
# Test in all cases: microbe, parasite or virus in culture
# E. coli MCR1 = tested on: E. coli MCR1
# Description: (§1) For 15 d in MHB, MICs were determined daily for each pseudopeptide and their antibiotic controls. This was done using cells from the well in which the compound concentration was one-half of the MIC (1/2MIC). For each compound, the 1/2MIC well from the previous day’s MIC assay plate was re-suspended and the bacteria grown to a density of about 10^8 cells ml−1. The suspension was diluted in MHB or CAMHB (10^6 cells/ml) and then used to determine the MIC of the same compound determined by micro broth dilution. All MIC measurements were performed in duplicate. Aliquots of the 5 × 10^4 cell/ml dilutions for each 1/2MIC well were periodically plated on MHB and incubated at 35°C for 18 h to verify cell density by colony counts and for visual inspection of colony phenotypes. To control compound stability, peptide solution MICs were determined during and at the end of the 15 d and were compared to cells unexposed to antibiotics. In vivo resistance was also assessed in treated mice (1.5 mg.kg^−1) for 4 d (sepsis) or 6 d (skin abscesses). […] The broth microdilution method was performed as per EUCAST recommendations on 5 independent colonies per mouse (3 mice per set, 15 colonies per drug tested). For severe sepsis and subcutaneous abscesses, in vivo resistance was determined by plating aliquots of crude kidney extracts or abscesses on plates containing 1-, 2-, 4-, or 8-fold the peptide MICs 7 or 3 d post infections, respectively.
# E. coli K12 = tested on: E. coli K12
# Description: as §1
# E. coli 13090 = tested on: E. coli 13090
# Description: as §1
# P. aeruginosa 15643 = tested on: P. aeruginosa 15643
# Description: as §1
# S. aureus N315 (MRSA) = conditions: Staphylococcus aureus, MRSA
# Description: (10−4 M final concentrations). At selected time intervals, 100 μl of reaction mixture was collected, quenched by 200 μl 95% EtOH, and adjusted at pH 2 to prevent peptide adsorption to serum proteins. […] Supernatants were analyzed by RP-HPLC on an Xbridge C18 column with a linear gradient of water, 0.08% TFA, and acetonitrile with 1% TFA. HPLC peak areas were used to calculate the percentages of intact compound remaining at the various time points. MIC and MBC values were determined in triplicate in many ESKAPE clinical isolates, including a dozen MDR S. aureus, by the broth microdilution method. Peptidomimetics and antibiotics were assayed in a concentration range of 1 to 128 μM. The bacterial inoculum (5 × 10^5 colony-forming units [CFUs]/well) was prepared in MHB or CAMHB (150 μl). A Biotek Synergy 2 spectrophotometer was used to record the results after 18–20 h incubation at 35°C (±2°C). […] After every hour of culture for 4 h, serial dilutions were plated on BHI plates and incubated overnight at 37°C, and then the CFUs were counted and expressed as log CFU/ml. Phosphate-buffered saline (PBS)-exposed S. aureus MRSA was included as a control.
# MRSA (Mu3) = tested on: MRSA (Mu3)
# Description: as §1
# MSSA (Newman) = conditions: for MIC: Staphylococcus aureus
# Description: as §1
compound,measurement,setting,value
"C[C@@H]1O[C@@H]1P(=O)(O)O [Fosfomycin, fosfomycin, reference compound]",MIC,"E. coli MCR1; E. coli MCR1, d0 of serial passages",27 µg/mL
same,MIC,"E. coli MCR1; Escherichia coli, MCR1",200 µM
same,MIC,"E. coli K12; E. coli K12, d0 of serial passages",27 µg/mL
same,MIC,"E. coli K12; Escherichia coli, K12",200 µM
same,MIC,"E. coli 13090; E. coli 13090, d0 of serial passages",27 µg/mL
same,MIC,"E. coli 13090; Escherichia coli, 13090",200 µM
same,MIC,"P. aeruginosa 15643; P. aeruginosa 15643, d0 of serial passages",27 µg/mL
same,MIC,"P. aeruginosa 15643; Pseudomonas aeruginosa, 15643",200 µM
"COc1cccc(OC)c1C(=O)N[C@@H]1C(=O)N2[C@@H]1SC(C)(C)[C@@H]2C(=O)O [Methicillin, methicillin]",MIC,S. aureus N315 (MRSA),32 µM
"CO[C@H]1/C=C/O[C@@]2(C)Oc3c(C)c(O)c4c(O)c(c(/C=N/N5CCN(C)CC5)c(O)c4c3C2=O)NC(=O)/C(C)=C\C=C\[C@H](C)[C@H](O)[C@@H](C)[C@@H](O)[C@@H](C)[C@H](OC(C)=O)[C@@H]1C [Rifampicin, rifampicin]",MIC,"MRSA (Mu3); MRSA (Mu3), d14 of serial passages at sub-MIC","1,024 (843) μM"
same,MIC,"MRSA (Mu3); Staphylococcus aureus, MRSA",1020 µM
same,Increase of MIC after 2 weeks of serial passages,MSSA (Newman); S. aureus,"about 30,000 fold"
same,MIC,"MSSA (Newman); MSSA (Newman), d0 of serial passages",0.03 µM
same,MIC,"MSSA (Newman); MSSA|NEWMAN, d14 of serial passages at sub-MIC",1020 µM
